{"source": "ChEMBL document CHEMBL1126591", "about": "“Dibenz[b,e]oxepin derivatives: novel antiallergic agents possessing thromboxane A2 and histamine H1 dual antagonizing activity. 1” (J Med Chem, 1993)", "key": {"[1]": {"assay": "Affinity for TXA2 / PGH-2 receptors in guinea pig platelets, by inhibition of [3H]U-46619 binding"}, "[2]": {"target": "Histamine H1 receptor (Cavia porcellus) (UniProt P31389)", "sequence (P31389 whole entry)": "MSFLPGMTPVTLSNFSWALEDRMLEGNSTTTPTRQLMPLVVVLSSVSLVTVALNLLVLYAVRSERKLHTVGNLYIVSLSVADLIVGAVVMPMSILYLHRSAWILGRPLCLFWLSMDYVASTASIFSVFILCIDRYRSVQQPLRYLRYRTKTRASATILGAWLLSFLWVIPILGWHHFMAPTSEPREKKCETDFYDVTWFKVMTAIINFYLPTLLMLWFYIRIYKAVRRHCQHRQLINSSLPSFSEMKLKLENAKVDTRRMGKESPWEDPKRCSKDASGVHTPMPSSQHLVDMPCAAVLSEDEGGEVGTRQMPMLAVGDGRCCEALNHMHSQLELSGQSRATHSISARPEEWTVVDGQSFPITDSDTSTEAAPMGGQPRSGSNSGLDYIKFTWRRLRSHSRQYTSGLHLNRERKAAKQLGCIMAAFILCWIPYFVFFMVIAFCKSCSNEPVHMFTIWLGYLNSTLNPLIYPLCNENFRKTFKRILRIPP", "assay": "Inhibitory effect on the specific binding of [3H]pyrilamine to guinea pig cerebellum histamine H1 receptor at 1 uM", "format": "tissue-based"}, "Histamine H1 receptor": {"target": "Histamine H1 receptor (Cavia porcellus, UniProt P31389)", "sequence (P31389 whole entry)": "as above", "assay": "Inhibition of the specific binding of [3H]pyrilamine to guinea pig cerebellum histamine H1 receptor", "format": "tissue-based"}, "Cavia porcellus": {"organism": "Cavia porcellus", "assay": "Inhibitory effect on the specific binding of [3H]U-46619 to guinea pig platelets TXA2/PGH2 receptors at 1 uM"}, "Rattus norvegicus [3]": {"tested_on": "Rattus norvegicus", "assay": "Compound concentration inhibiting 48 hr homologous passive cutaneous Anaphylaxis in rats peroral administration", "format": "functional", "settings": "po"}, "[4]": {"assay": "Inhibition of prostaglandin I2 receptor binding at a concentration of 10 uM; Showed negligible activities"}, "[5]": {"target": "5-hydroxytryptamine receptor 5B (Rattus norvegicus, UniProt P35365)", "sequence (P35365 whole entry)": "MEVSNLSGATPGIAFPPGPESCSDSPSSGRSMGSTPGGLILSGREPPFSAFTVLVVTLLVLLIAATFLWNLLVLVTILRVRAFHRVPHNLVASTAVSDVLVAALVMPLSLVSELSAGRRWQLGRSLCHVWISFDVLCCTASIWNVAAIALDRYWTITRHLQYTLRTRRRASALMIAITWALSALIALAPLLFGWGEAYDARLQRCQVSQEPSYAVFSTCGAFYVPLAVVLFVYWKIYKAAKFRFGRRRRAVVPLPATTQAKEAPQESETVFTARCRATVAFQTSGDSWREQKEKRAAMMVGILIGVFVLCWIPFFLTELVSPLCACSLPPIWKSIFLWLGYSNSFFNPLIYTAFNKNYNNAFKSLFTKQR", "assay": "Inhibition of serotonin receptor binding at a concentration of 10 uM; Showed negligible activities"}, "Histamine H2 receptor": {"target": "Histamine H2 receptor (Rattus norvegicus, UniProt P25102)", "sequence (P25102 whole entry)": "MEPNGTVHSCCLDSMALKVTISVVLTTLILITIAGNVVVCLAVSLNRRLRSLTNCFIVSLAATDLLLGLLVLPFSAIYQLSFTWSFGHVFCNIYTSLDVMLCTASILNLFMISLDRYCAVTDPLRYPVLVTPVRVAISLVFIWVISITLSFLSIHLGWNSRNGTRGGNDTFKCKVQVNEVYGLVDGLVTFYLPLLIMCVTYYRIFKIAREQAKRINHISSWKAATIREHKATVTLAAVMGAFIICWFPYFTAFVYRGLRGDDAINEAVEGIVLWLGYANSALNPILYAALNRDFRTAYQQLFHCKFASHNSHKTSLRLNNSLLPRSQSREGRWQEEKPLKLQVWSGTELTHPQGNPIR", "assay": "Inhibition of H2 histamine receptor binding at a concentration of 10 uM; Showed negligible activities"}, "D(2) dopamine receptor": {"target": "D(2) dopamine receptor (Rattus norvegicus, UniProt P61169)", "sequence (P61169 whole entry)": "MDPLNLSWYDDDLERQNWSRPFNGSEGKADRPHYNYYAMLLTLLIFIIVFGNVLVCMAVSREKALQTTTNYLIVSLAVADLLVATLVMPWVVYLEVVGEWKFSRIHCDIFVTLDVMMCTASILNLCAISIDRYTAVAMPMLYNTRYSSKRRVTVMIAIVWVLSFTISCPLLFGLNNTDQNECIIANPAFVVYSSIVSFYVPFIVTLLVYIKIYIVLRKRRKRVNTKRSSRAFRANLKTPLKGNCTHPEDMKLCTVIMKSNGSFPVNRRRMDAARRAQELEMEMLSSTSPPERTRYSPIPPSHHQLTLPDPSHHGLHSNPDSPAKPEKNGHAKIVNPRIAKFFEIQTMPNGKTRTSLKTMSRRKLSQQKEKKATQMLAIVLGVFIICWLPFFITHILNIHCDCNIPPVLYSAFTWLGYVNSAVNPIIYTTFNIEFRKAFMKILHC", "assay": "Inhibition of dopamine receptor binding at a concentration of 10 uM; Showed negligible activities"}, "[6]": {"tested_on": "Alpha-1 adrenergic receptor (Rattus norvegicus)", "assay": "Inhibition of alpha-1 adrenergic receptor binding at a concentration of 10 uM; Showed negligible activities"}, "[7]": {"target": "T1, Muscarinic acetylcholine receptor M1 (Homo sapiens, UniProt P11229)", "T1 sequence (P11229 whole entry)": "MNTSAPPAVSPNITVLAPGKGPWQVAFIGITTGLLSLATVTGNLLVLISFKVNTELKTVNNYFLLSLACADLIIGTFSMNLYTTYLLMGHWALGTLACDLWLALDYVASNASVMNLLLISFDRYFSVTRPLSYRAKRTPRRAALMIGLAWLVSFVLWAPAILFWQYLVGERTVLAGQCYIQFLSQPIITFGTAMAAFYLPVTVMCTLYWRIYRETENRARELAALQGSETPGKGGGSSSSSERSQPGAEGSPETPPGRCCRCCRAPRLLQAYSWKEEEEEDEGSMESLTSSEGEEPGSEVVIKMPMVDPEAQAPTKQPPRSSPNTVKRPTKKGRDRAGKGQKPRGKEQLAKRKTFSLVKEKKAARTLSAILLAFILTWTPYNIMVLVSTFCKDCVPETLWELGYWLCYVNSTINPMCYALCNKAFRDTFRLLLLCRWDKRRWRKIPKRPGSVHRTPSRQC", "assay": "Inhibition of muscarinic-1 receptor binding at a concentration of 10 uM; Showed negligible activities"}, "[8]": {"target": "Platelet-activating factor receptor (Homo sapiens, UniProt P25105)", "sequence (P25105 whole entry)": "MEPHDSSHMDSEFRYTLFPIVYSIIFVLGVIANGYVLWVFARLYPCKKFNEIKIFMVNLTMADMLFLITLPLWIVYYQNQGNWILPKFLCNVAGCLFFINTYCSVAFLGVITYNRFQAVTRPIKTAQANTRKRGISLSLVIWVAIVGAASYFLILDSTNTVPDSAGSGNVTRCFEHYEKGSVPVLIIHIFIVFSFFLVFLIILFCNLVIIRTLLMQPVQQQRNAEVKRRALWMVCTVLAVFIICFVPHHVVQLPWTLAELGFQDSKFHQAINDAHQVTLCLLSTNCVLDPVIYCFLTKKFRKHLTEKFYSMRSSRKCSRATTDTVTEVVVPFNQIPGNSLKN", "assay": "Inhibition of platelet-activating factor binding at a concentration of 10 uM; Showed negligible activities"}, "[9]": {"tested_on": "Alpha-2 adrenergic receptor (Rattus norvegicus)", "assay": "Inhibition of alpha-2 adrenergic receptor binding at a concentration of 10 uM; Showed negligible activities"}, "[10]": {"target": "T2, Prostaglandin E2 receptor EP3 subtype (Homo sapiens, UniProt P43115)", "T2 sequence (P43115 whole entry)": "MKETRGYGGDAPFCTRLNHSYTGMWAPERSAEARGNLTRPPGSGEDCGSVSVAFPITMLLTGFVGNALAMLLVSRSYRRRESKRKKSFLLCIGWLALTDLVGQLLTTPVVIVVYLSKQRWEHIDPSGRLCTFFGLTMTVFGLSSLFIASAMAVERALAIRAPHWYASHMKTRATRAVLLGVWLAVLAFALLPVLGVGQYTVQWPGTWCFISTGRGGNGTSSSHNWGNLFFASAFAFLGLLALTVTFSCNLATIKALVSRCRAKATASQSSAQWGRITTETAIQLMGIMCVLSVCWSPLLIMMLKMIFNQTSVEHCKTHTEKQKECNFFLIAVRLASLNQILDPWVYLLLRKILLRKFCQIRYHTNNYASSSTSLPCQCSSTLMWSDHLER", "assay": "Inhibition of prostaglandin E2 receptor binding at a concentration of 10 uM; Showed negligible activities"}, "[11]": {"assay": "Lethal concentration in 50% rats peroral administration of compound", "format": "ADME, organism-based", "settings": "rat, in vivo, po"}, "Rattus norvegicus [12]": {"tested_on": "Rattus norvegicus", "assay": "Compound concentration inhibiting 48 hr homologous passive cutaneous Anaphylaxis in rats peroral administration; No efficacy", "format": "functional, organism-based"}}, "note": "The source made the active and inactive calls. No cut-off for these calls is given here."}
{"smiles": "O=C(O)c1ccc2c(c1)/C(=C/CN1CCN(c3ccc(F)cc3)CC1)c1ccccc1CO2", "values": [{"measurement": "Ki", "setting": "[1]", "value": 2300, "unit": "nM"}, {"measurement": "inhibition", "setting": "[2]", "value": 3, "unit": "%"}]}
{"smiles": "O=C(O)c1ccc2c(c1)C(SCCN1CCC(c3ccccc3)CC1)c1ccccc1CO2", "note": "(centres undefined)", "values": [{"measurement": "Ki", "setting": "Histamine H1 receptor", "value": 20, "unit": "nM"}, {"measurement": "Ki", "setting": "[1]", "value": 990, "unit": "nM"}]}
{"smiles": "O=C(O)c1ccc2c(c1)C(SCCN1CCN(c3ccccc3)CC1)c1ccccc1CO2", "note": "(centres undefined)", "values": [{"measurement": "Ki", "setting": "Histamine H1 receptor", "value": 47, "unit": "nM"}, {"measurement": "Ki", "setting": "[1]", "value": 210, "unit": "nM"}]}
{"smiles": "O=C(O)c1ccc2c(c1)C(SCCN1CCc3ccccc3C1)c1ccccc1CO2", "note": "(centres undefined)", "values": [{"measurement": "Ki", "setting": "Histamine H1 receptor", "value": 6.9, "unit": "nM"}, {"measurement": "Ki", "setting": "[1]", "value": 240, "unit": "nM"}]}
{"smiles": "CC(C)(C(=O)O)c1ccc2c(c1)C(SCCN1CCC(Cc3ccccc3)CC1)c1ccccc1CO2", "note": "(centres undefined)", "values": [{"measurement": "Ki", "setting": "Histamine H1 receptor", "value": 17, "unit": "nM"}, {"measurement": "Ki", "setting": "[1]", "value": 1600, "unit": "nM"}]}
{"smiles": "O=C(O)c1ccc2c(c1)C(SCCNS(=O)(=O)c1ccccc1)c1ccccc1CO2", "note": "(centres undefined)", "values": [{"measurement": "Ki", "setting": "[1]", "value": 32, "unit": "nM"}, {"measurement": "inhibition", "setting": "[2]", "value": 0, "unit": "%"}]}
{"smiles": "O=C(O)CCc1ccc2c(c1)C(SCCN1CCC(Cc3ccccc3)CC1)c1ccccc1CO2", "note": "(centres undefined)", "values": [{"measurement": "Ki", "setting": "Histamine H1 receptor", "value": 12, "unit": "nM"}, {"measurement": "Ki", "setting": "[1]", "value": 340, "unit": "nM"}]}
{"smiles": "O=C(O)c1ccc2c(c1)C(SCCN1CCC(Cc3ccccc3)CC1)c1ccccc1CO2", "note": "(stereo in doubt; (+)12)", "values": [{"measurement": "Ki", "setting": "Histamine H1 receptor", "value": 9.9, "unit": "nM"}, {"measurement": "Ki", "setting": "[1]", "value": 14000, "unit": "nM"}]}
{"smiles": "O=C(O)Cc1ccc2c(c1)/C(=C\\CN1CCC(Cc3ccccc3)CC1)c1ccccc1CO2", "values": [{"measurement": "Ki", "setting": "Histamine H1 receptor", "value": 15, "unit": "nM"}, {"measurement": "Ki", "setting": "[1]", "value": 2600, "unit": "nM"}]}
{"smiles": "O=C(O)c1ccc2c(c1)C(SCCN1CCOCC1)c1ccccc1CO2", "note": "(centres undefined)", "values": [{"measurement": "Ki", "setting": "Histamine H1 receptor", "value": 42, "unit": "nM"}, {"measurement": "Ki", "setting": "[1]", "value": 1900, "unit": "nM"}]}
{"smiles": "O=C(O)c1ccc2c(c1)C(SCCN1CCC(Cc3ccccc3)CC1)c1ccccc1CO2", "note": "(racemic)", "values": [{"measurement": "Ki", "setting": "Histamine H1 receptor", "value": 18, "unit": "nM"}, {"measurement": "Ki", "setting": "[1]", "value": 140, "unit": "nM"}]}
{"smiles": "O=C(O)c1ccc2c(c1)C(SCCN1CCC(n3c(O)nc4ccccc43)CC1)c1ccccc1CO2", "note": "(centres undefined)", "values": [{"measurement": "Ki", "setting": "Histamine H1 receptor", "value": 500, "unit": "nM"}, {"measurement": "Ki", "setting": "[1]", "value": 130, "unit": "nM"}]}
{"smiles": "CN(C)CCSC1c2ccccc2COc2ccc(C(=O)O)cc21", "note": "(centres undefined)", "values": [{"measurement": "Ki", "setting": "Histamine H1 receptor", "value": 9, "unit": "nM"}, {"measurement": "inhibition", "setting": "Cavia porcellus", "value": 18, "unit": "%"}, {"measurement": "ED50", "setting": "Rattus norvegicus [3]", "value": 0.92, "unit": "mg/kg"}]}
{"smiles": "O=C(O)Cc1ccc2c(c1)C(SCCN1CCC(Cc3ccccc3)CC1)c1ccccc1CO2", "note": "(centres undefined)", "values": [{"measurement": "Ki", "setting": "Histamine H1 receptor", "value": 10, "unit": "nM"}, {"measurement": "Ki", "setting": "[1]", "value": 430, "unit": "nM"}]}
{"smiles": "O=C(O)c1ccc2c(c1)C(SCCN1CCN(c3ccc(F)cc3)CC1)c1ccccc1CO2", "note": "(centres undefined)", "values": [{"measurement": "Ki", "setting": "Histamine H1 receptor", "value": 41, "unit": "nM"}, {"measurement": "Ki", "setting": "[1]", "value": 400, "unit": "nM"}]}
{"smiles": "O=C(O)c1ccc2c(c1)C(SCCN1CCN(Cc3ccccc3)CC1)c1ccccc1CO2", "note": "(centres undefined)", "values": [{"measurement": "Ki", "setting": "Histamine H1 receptor", "value": 14, "unit": "nM"}, {"measurement": "Ki", "setting": "[1]", "value": 490, "unit": "nM"}]}
{"smiles": "CN(C)C/C=C1\\c2ccccc2COc2ccc(CC(=O)O)cc21", "values": [{"measurement": "Ki", "setting": "[1]", "value": "> 1000", "unit": "nM"}, {"measurement": "ED50", "setting": "Rattus norvegicus [3]", "value": 0.077, "unit": "mg/kg"}]}
{"smiles": "O=C(O)c1ccc2c(c1)/C(=C/Cn1cnc3ccccc31)c1ccccc1CO2", "values": [{"measurement": "Ki", "setting": "[1]", "value": 15, "unit": "nM"}]}
{"smiles": "O=C(O)Cc1ccc2c(c1)/C(=C/CN1CCC(Cc3ccccc3)CC1)c1ccccc1CO2", "values": [{"measurement": "Ki", "setting": "[4]", "value": "Not Active"}, {"measurement": "Ki", "setting": "[5]", "value": "Not Active"}, {"measurement": "Ki", "setting": "Histamine H1 receptor", "value": 20, "unit": "nM"}, {"measurement": "Ki", "setting": "Histamine H2 receptor", "value": "Not Active"}, {"measurement": "Ki", "setting": "D(2) dopamine receptor", "value": "Not Active"}, {"measurement": "Ki", "setting": "[1]", "value": 740, "unit": "nM"}, {"measurement": "Ki", "setting": "[6]", "value": "Not Active"}, {"measurement": "Ki", "setting": "[7]", "value": "Not Active"}, {"measurement": "ED50", "setting": "Rattus norvegicus [3]", "value": 0.73, "unit": "mg/kg"}, {"measurement": "Ki", "setting": "[8]", "value": "Not Active"}, {"measurement": "Ki", "setting": "[9]", "value": "Not Active"}, {"measurement": "Ki", "setting": "[10]", "value": "Not Active"}, {"measurement": "LD50", "setting": "[11]", "value": "> 1000", "unit": "mg/kg"}]}
{"smiles": "O=C(O)COc1ccc(CCNS(=O)(=O)c2ccccc2)cc1", "note": "[SULOTROBAN]", "values": [{"measurement": "ED50", "setting": "Rattus norvegicus [12]", "value": "inactive"}, {"measurement": "inhibition", "setting": "[2]", "value": 0, "unit": "%"}]}
{"smiles": "O=C(O)c1ccc2c(c1)C(SCCN1CCC(Cc3ccccc3)CC1)c1ccccc1CO2", "note": "(stereo in doubt; (-)12)", "values": [{"measurement": "Ki", "setting": "Histamine H1 receptor", "value": 740, "unit": "nM"}, {"measurement": "Ki", "setting": "[1]", "value": 42, "unit": "nM"}]}
{"smiles": "CN1CCC(=C2c3ccccc3CC(=O)c3sccc32)CC1", "note": "[KETOTIFEN]", "values": [{"measurement": "ED50", "setting": "Rattus norvegicus [3]", "value": 4.8, "unit": "mg/kg"}]}
